Test results reported in patent US8729013B2 (priority 2004, dated 2014).
Values after ≈ are worked out from the molar mass of the structure shown. Non-standard residues stand in square brackets, D forms with d. Residues, ends and D or L forms follow the SMILES beside them. Orn(N5-OH,N5-Ac) = CC(=O)N(O)CCC[C@H](N)C(=O)O

How the values were obtained:
Assay type in all cases: cell-based, Staphylococcus aureus
[1] = system: sirA and sirB mutants; experiment: Siderophore plate bioassay (growth promotion); conditions: data not shown
Description: Siderophore plate bioassays were performed essentially as previously described (Sebulsky et al. (2000) J. Bacteriol. 182:4394-4400) with the following modifications: TMS-agar was cooled to 45° C. before the addition of 10^5 cfu/ml of each strain to be tested. 2,2′-dipyridyl was added at a concentration of 550 μM for plates containing S. aureus Newman and Newman containing vehicle controls (e.g. pAW8 and pALC2073) or 400 μM 2,2′-dipyridyl for strains H803 (Newman sirA::Km) and H804 (Newman sirB::Tet) (see FIG. 1) with or without plasmids. Staphylobactin siderophore was isolated from RN6390 as previously described (Dale et al. (2004) Infect. Immun. 72:29-37). Briefly, S. aureus strains were vigorously shaken in TMS for 48 hours at 37° C. Culture supernatants were recovered by centrifugation in 100% methanol to 1/10 of the volume of the original culture supernatant and passed through Whatman No. 1 filter paper to remove particulate material. Rotary evaporation was used to reduce the volume before application to an LH-20 column (Amersham Biosciences). Fractions were collected, and those testing positive with chrome azurol S (CAS) shuttle solution and for biological activity in siderophore plate bioassays were dried, resuspended in water, and examined by high-performance liquid chromatography (HPLC). Analytical reversed-phase HPLC was used for final purification of siderophore. The column utilized was a Waters ODS2 SPherisorb column (4.6 by 150 mm). Trifluoroacetic acid (0.1%) in water represented solvent A whereas 0.1% trifluoroacetic acid in acetonitrile was used as solvent B. The chromatographic method used was as follows: at a flow rate of 0.75 ml/min, 6% B for 3.5 min., followed by a gradient of 6 to 60% B over 20 min. […] Staphylobactin was collected, dried, and rechromatographed to check for purity. The purity of Staphylobactin siderophore was confirmed by HPLC analysis. Aerobactin was purchased from EMC microcollections and used at a concentration of 1 μg/ml as a control in all bioassays.

[2] = system: H1071 (RN6390 ΔfhuCBG::ermB); experiment: Siderophore plate bioassay (iron source utilization); conditions: TMS agar, 25 μM EDDHA; compared with wildtype
Description: Siderophore plate bioassays were performed essentially as described (Sebulsky et al. (2000) J. Bacteriol. 182:4394-4400). Briefly, 10^4 cells/mL were added to molten TMS agar containing 25 μM EDDHA as an iron chelating agent. Ten microliters of iron sources to be tested (DESFERAL® (50 μM), ferrichrome (50 μM), enterobactin (500 μM), staphylobactin (50 μM DESFERAL® equivalents), hemin (250 μg/mL), hemoglobin (2 mg/mL), FeCl3 (50 mM), or ferric citrate (5 mM)) were added to sterile 6 mm-diameter paper disks and placed on the surface of the plates. Growth promotion, as measured by the diameter of the growth halo around each disk, was determined after 48 h incubation, except for heme and hemoglobin, which were measured after 72 hours.

[3] = system: S. aureus H803 (Newman sirA::Km); experiment: Minimum inhibitory concentration (MIC) in TMS; conditions: H803, bacteria grown in TMS
From the text: (§1) Streptonigrin is toxic to cells in the presence of intracellular iron and, therefore, cells importing iron are generally more sensitive to the toxic affects of this drug versus mutants debilitated in iron import (Yeowell et al. (1982) Antimicrob. Agents Chemother. 22:961-968). The minimum inhibitory concentration (MIC) of streptonigrin was approximately 4-fold lower for S. aureus Newman grown in TMS than for either S. aureus H803 or H804 grown in the same media (see Table 2).

[4] = system: S. aureus H804 (Newman sirB::Tet); experiment: Minimum inhibitory concentration (MIC) in TMS; conditions: H804, bacteria grown in TMS
From the text: as §1

[5] = system: S. aureus Newman; experiment: Minimum inhibitory concentration (MIC) in TMS
From the text: as §1

[6] = Staphylococcus aureus, NEWMAN, read-out: MIC Streptonigrin

Molecule | growth promotion in mutants [1] | utilization as iron source by H1071 [2] | other results
ferric citrate | unaffected | not significantly impaired | –
COC1=C(N)C(=O)c2nc(-c3nc(C(=O)O)c(C)c(-c4ccc(OC)c(OC)c4O)c3N)ccc2C1=O [Streptonigrin, streptonigrin] | – | – | MIC [3, 6]: 8 ng/mL (≈ 0.0158 µM); MIC [4, 6]: 8 ng/mL (≈ 0.0158 µM); MIC Streptonigrin ([5]; Newman, bacteria grown in TMS): 2 ng/mL (≈ 0.00395 µM); MIC ([5]; Staphylococcus aureus, Newman + 50 μM DESFERAL, TMS, read-out: MIC Streptonigrin): 2 ng/mL; MIC lower for Newman than for H803 or H804 ([5]; grown in TMS): approximately 4 fold
c1ccc(-c2ccccn2)nc1 [2,2′-dipyridyl] | – | – | MIC 2,2′-dipyridyl [3]: 125 µM (≈ 19.5 µg/mL); MIC 2,2′-dipyridyl [4]: 125 µM (≈ 19.5 µg/mL); MIC higher for Newman than for H803 or H804 [5]: 4 fold; MIC 2,2′-dipyridyl ([5]; Newman, bacteria grown in TMS): 500 µM (≈ 78.1 µg/mL)
hemin | – | not significantly impaired | –
CC(=O)N[C@@H](CCCN([O-])C(=O)/C=C(\C)CCO)C(=O)OCC/C(C)=C/C(=O)N([O-])CCC[C@@H]1NC(=O)[C@H](CCCN([O-])C(=O)/C=C(\C)CCO)NC1=O.[Fe+3] [coprogen] | – | unable to utilize | –
O=C(N[C@H]1COC(=O)[C@@H](NC(=O)c2cccc(O)c2O)COC(=O)[C@@H](NC(=O)c2cccc(O)c2O)COC1=O)c1cccc(O)c1O [enterobactin] | – | not significantly impaired | –
CC(=O)N(O)CCCCCNC(=O)CCC(=O)N(O)CCCCCNC(=O)CCC(=O)N(O)CCCCCN [DESFERAL®, desferrioxamine B] | unaffected | unable to utilize | –
hemoglobin | – | not significantly impaired | –
CC(=O)N(O)CCCC[C@H](NC(=O)CC(O)(CC(=O)N[C@@H](CCCCN(O)C(C)=O)C(=O)O)C(=O)O)C(=O)O [aerobactin] | unaffected | unable to utilize | –
CC(=O)N([O-])CCC[C@@H]1NC(=O)CNC(=O)CNC(=O)CNC(=O)[C@H](CCCN([O-])C(C)=O)NC(=O)[C@H](CCCN([O-])C(C)=O)NC1=O.[Fe+3] [ferrichrome] (cyclo(GGG[Orn(N5-OH,N5-Ac)][Orn(N5-OH,N5-Ac)][Orn(N5-OH,N5-Ac)])) | – | unable to utilize | –
